Measured values published in patent US8426429B2, “2-amino-quinazoline derivatives useful as inhibitors of β-secretase (BACE)” (Jansssen Pharmaceutica N.V., priority 2004, dated 2013).

Target: T1, β-secretase (BACE) (Homo sapiens, UniProt P56817)
T1 construct: purchased Panvera
Experiment: BACE FS1 % Inhibition Assay
Type: biochemical
Summary of the method: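 Percent inhibition per compound concentration was referenced to vehicle-treated enzyme and no-enzyme wells. Enzyme at a 4 μg/mL working stock plus compound was mixed for 20 min at room temperature before the FS1 substrate (300 μg/mL working stock) was added for a 1 h room-temperature reaction.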

T1 sequence (P56817 46-501): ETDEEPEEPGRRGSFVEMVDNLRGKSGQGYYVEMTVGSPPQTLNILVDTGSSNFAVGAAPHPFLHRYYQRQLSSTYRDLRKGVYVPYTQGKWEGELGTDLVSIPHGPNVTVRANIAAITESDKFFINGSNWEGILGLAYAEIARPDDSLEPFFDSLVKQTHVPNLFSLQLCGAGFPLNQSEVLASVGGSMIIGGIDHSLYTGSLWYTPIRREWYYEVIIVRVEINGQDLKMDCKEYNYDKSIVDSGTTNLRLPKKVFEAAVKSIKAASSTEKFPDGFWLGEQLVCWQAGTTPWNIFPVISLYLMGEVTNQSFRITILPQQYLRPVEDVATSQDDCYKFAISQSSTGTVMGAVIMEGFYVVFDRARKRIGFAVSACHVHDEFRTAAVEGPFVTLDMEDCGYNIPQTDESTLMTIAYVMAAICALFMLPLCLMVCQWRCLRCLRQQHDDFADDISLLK

% Inhibition (FS) (0.3 μM test compound) [%]	% Inhibition (FS) (1 μM test compound) [%]	% Inhibition (FS) (3 μM test compound) [%]	% Inhibition (FS) (0.3 μM test compound, 0.3 µM) [%]	% Inhibition (FS) (1 μM test compound, 1 µM) [%]	% Inhibition (FS) (3 μM test compound, 3 µM) [%]	SMILES
<30	<30	<30	–	–	–	CC(C)Oc1ccc2c(c1)CN(Cc1cccc(C(=O)N(C)C3CCCCC3)c1)C(N)=N2 [Compound 519]
<30	<30	<30	–	–	–	CN(C(=O)c1cccc(CN2Cc3cc(OCC4CCCC4)ccc3N=C2N)c1)C1CCCCC1 [Compound 521]
<30	<30	41	–	–	–	CC(C)[C@@H](CNC(=O)C1CCCCC1)N1Cc2cc(Oc3ccccc3)ccc2N=C1N [Compound 528]
<30	<30	68	–	–	–	CC1CCN(C(=O)CCCC(CCC(=O)N2CCC(C)CC2)N2Cc3cc(Oc4ccccc4)ccc3N=C2N)CC1 (stereo not drawn) [Compound 532]
<30	30	84	–	–	–	CSc1ccccc1-c1ccc2c(c1)CN(CCNC(=O)C1CCCCC1)C(N)=N2 [Compound 540]
<30	<30	<30	–	–	–	NC(=O)c1ccccc1-c1ccc2c(c1)CN(CCNC(=O)C1CCCCC1)C(N)=N2 [Compound 543]
<30	30	71	–	–	–	CN(C(=O)c1cccc(CN2Cc3cc([S+]([O-])c4ccccc4)ccc3N=C2N)c1)C1CCCCC1 (stereo not drawn) [Compound 549]
<30	<30	<30	–	–	–	NC1=Nc2ccc(Oc3ccccc3)cc2CN1C1CCCCN(C(=O)C2CCCCC2)C1 (stereo not drawn) [Compound 551]
101	119	127	–	–	–	CC(C)CC(=O)NC[C@@H](C(C)C)N1Cc2cc(Oc3ccccc3)ccc2N=C1N [Compound 563]
112	119	129	–	–	–	CC(C)CCC(=O)NC[C@@H](C(C)C)N1Cc2cc(Oc3ccccc3)ccc2N=C1N [Compound 564]
<30	<30	<30	–	–	–	CCCC=Cc1ccc2c(c1)CN(CCNC(=O)c1cccc(C#N)c1)C(N)=N2 [Compound 568]
<30	<30	<30	–	–	–	CCCC(=O)NCCN1Cc2cc(-c3ccncc3)ccc2N=C1N [Compound 570]
<30	<30	<30	–	–	–	CCCC=Cc1ccc2c(c1)CN(CCNC(=O)CCC)C(N)=N2 [Compound 571]
<30	<30	<30	–	–	–	NC1=Nc2ccc(-c3cncnc3)cc2CN1CCNC(=O)C1CCCCC1 [Compound 575]
<30	<30	<30	–	–	–	CC(=O)c1cccc(-c2ccc3c(c2)CN(CCNC(=O)CC2CCCC2)C(N)=N3)c1 [Compound 582]
<30	<30	56	–	–	–	NC1=Nc2ccc(-c3cccc(C(F)(F)F)c3)cc2CN1CCNC(=O)CC1CCCC1 [Compound 584]
<30	<30	<30	–	–	–	CC(=O)c1cccc(-c2ccc3c(c2)CN(CCNC(=O)c2cc(C)oc2C)C(N)=N3)c1 [Compound 588]
<30	<30	<30	–	–	–	Cc1cc(C(=O)NCCN2Cc3cc(-c4cccc(CO)c4)ccc3N=C2N)c(C)o1 [Compound 589]

Continued, molecule first:

SMILES	% Inhibition (FS) (0.3 μM test compound) [%]	% Inhibition (FS) (1 μM test compound) [%]	% Inhibition (FS) (3 μM test compound) [%]	% Inhibition (FS) (0.3 μM test compound, 0.3 µM) [%]	% Inhibition (FS) (1 μM test compound, 1 µM) [%]	% Inhibition (FS) (3 μM test compound, 3 µM) [%]
CCCCCOc1ccc2c(c1)CN(Cc1cccc(C(=O)N(C)C3CCCCC3)c1)C(N)=N2 [Compound 516]	<30	<30	<30	–	–	–
CC(C)COc1ccc2c(c1)CN(Cc1cccc(C(=O)N(C)C3CCCCC3)c1)C(N)=N2 [Compound 518]	<30	<30	<30	–	–	–
CN(C(=O)c1cccc(CN2Cc3cc(OC4CCCC4)ccc3N=C2N)c1)C1CCCCC1 [Compound 520]	<30	<30	33	–	–	–
CCCC(CCC)C(=O)N1CCC(N2Cc3cc(Oc4ccccc4)ccc3N=C2N)CC1 [Compound 523]	<30	<30	58	–	–	–
NC1=Nc2ccc(Oc3ccccc3)cc2CN1C1CCN(C(=O)C23CC4CC(CC(C4)C2)C3)CC1 [Compound 524]	<30	<30	44	–	–	–
NC1=Nc2ccc(Oc3ccccc3)cc2CN1CC1CCN(C(=O)C2CCCCC2)CC1 [Compound 525]	<30	<30	70	–	–	–
CCCC(CCC)C(=O)N1CCC(CN2Cc3cc(Oc4ccccc4)ccc3N=C2N)CC1 [Compound 526]	<30	36	98	–	–	–
NC1=Nc2ccc(Oc3ccccc3)cc2CN1CC1CCN(C(=O)C23CC4CC(CC(C4)C2)C3)CC1 [Compound 527]	<30	<30	51	–	–	–
NC1=Nc2ccc(Oc3c(F)cccc3F)cc2CN1CCC(=O)NC1C2CC3CC(C2)CC1C3 (stereo not drawn) [Compound 529]	<30	<30	66	–	–	–
CS(=O)(=O)Nc1ccccc1-c1ccc2c(c1)CN(CCNC(=O)C1CCCCC1)C(N)=N2 [Compound 539]	<30	<30	<30	–	–	–
CC(=O)Nc1ccccc1-c1ccc2c(c1)CN(CCNC(=O)C1CCCCC1)C(N)=N2 [Compound 541]	<30	<30	<30	–	–	–
CC(C)(C)NS(=O)(=O)c1ccccc1-c1ccc2c(c1)CN(CCNC(=O)C1CCCCC1)C(N)=N2 [Compound 542]	<30	<30	73	–	–	–
NC1=Nc2ccc(-c3ccccc3-c3ccccc3)cc2CN1CCNC(=O)C1CCCCC1 [Compound 544]	32	<30	51	–	–	–
NC1=Nc2ccc(Oc3ccccc3)cc2CN1C1CCCCN(C(=O)C23CC4CC(CC(C4)C2)C3)C1 (stereo not drawn) [Compound 550]	<30	<30	67	–	–	–
CCCC(CCC)C(=O)N1CCCCC(N2Cc3cc(Oc4ccccc4)ccc3N=C2N)C1 (stereo not drawn) [Compound 552]	<30	<30	36	–	–	–
CC(C)[C@@H](CNC(=O)C12CC3CC(CC(C3)C1)C2)N1Cc2cc(Oc3ccccc3)ccc2N=C1N [Compound 553]	<30	<30	49	–	–	–

SMILES	% Inhibition (FS) (0.3 μM test compound) [%]	% Inhibition (FS) (1 μM test compound) [%]	% Inhibition (FS) (3 μM test compound) [%]	% Inhibition (FS) (0.3 μM test compound, 0.3 µM) [%]	% Inhibition (FS) (1 μM test compound, 1 µM) [%]	% Inhibition (FS) (3 μM test compound, 3 µM) [%]
CCCC(CNC(=O)C1CCCCC1)N1Cc2cc(Oc3ccccc3)ccc2N=C1N (stereo not drawn) [Compound 554]	–	–	–	<30	<30	42
CCCC(CNC(=O)C12CC3CC(CC(C3)C1)C2)N1Cc2cc(Oc3ccccc3)ccc2N=C1N (stereo not drawn) [Compound 555]	–	–	–	<30	<30	46
CN(C(=O)CCC(CO)N1Cc2cc(Oc3ccccc3)ccc2N=C1N)C1CCCCC1 (stereo not drawn) [Compound 557]	<30	<30	<30	–	–	–
CN(C(=O)c1ncoc1C(Cc1ccccc1)N1Cc2cc(Oc3ccccc3)ccc2N=C1N)C1CCCCC1 (stereo not drawn) [Compound 559]	<30	<30	<30	–	–	–
N#Cc1cccc(C(=O)NCCN2Cc3cc(-c4cncnc4)ccc3N=C2N)c1 [Compound 567]	<30	<30	<30	–	–	–
CCCC(=O)NCCN1Cc2cc(-c3cncnc3)ccc2N=C1N [Compound 569]	<30	<30	<30	–	–	–
CC(C)(C)C(=O)NCCN1Cc2cc(-c3ccncc3)ccc2N=C1N [Compound 573]	<30	<30	<30	–	–	–
CCCC=Cc1ccc2c(c1)CN(CCNC(=O)C(C)(C)C)C(N)=N2 [Compound 574]	<30	<30	<30	–	–	–
NC1=Nc2ccc(-c3ccncc3)cc2CN1CCNC(=O)C1CCCCC1 [Compound 576]	<30	<30	<30	–	–	–
CCCC=Cc1ccc2c(c1)CN(CCNC(=O)C1CCCCC1)C(N)=N2 [Compound 577]	<30	<30	<30	–	–	–
CCCC=Cc1ccc2c(c1)CN(CCNC(=O)CC1CCCC1)C(N)=N2 [Compound 580]	<30	<30	<30	–	–	–
Cc1cc(C(=O)NCCN2Cc3cc(-c4ccccc4)ccc3N=C2N)c(C)o1 [Compound 586]	<30	<30	59	–	–	–
CCCC=Cc1ccc2c(c1)CN(CCNC(=O)c1cc(C)oc1C)C(N)=N2 [Compound 587]	<30	<30	<30	–	–	–
Cc1cc(C(=O)NCCN2Cc3cc(-c4cccc(C(F)(F)F)c4)ccc3N=C2N)c(C)o1 [Compound 590]	<30	<30	<30	–	–	–
CC(=O)Nc1ccc(C(=O)NCCN2Cc3cc(-c4ccccc4)ccc3N=C2N)cc1 [Compound 591]	<30	<30	<30	–	–	–
